Test results taken from patent US12662455B2, “Tetrahydrobenzo-quinoline sulfonamide derivatives useful as IgE modulators” (UCB Biopharma SRL, priority 2019, dated 2026).

Target: T1, IgE-Tb / soluble IgE receptor FcεRIα (Y131A mutation) (Homo sapiens, UniProt P01854, C105A/N146Q/N252Q)
T1 construct: 86 nmoles of IgE-Fc(N265Q, N371Q) (Young et al., 1995)
Test: in vitro FRET assay: binding of IgE-Tb to receptor FcεRIα-Y131A-AF488 and inhibition by compounds
Settings: 5 nM IgE-Tb, 25 nM FcεRIα-Y131A-AF488, 2 hours at room temperature; read-out: FRET IC50 range
Method: 86 nmoles of IgE-Fc(N265Q, N371Q) (Young et al., 1995) at 172 μM in 100 mM NaHCO3, pH 9.5 was added to 1 mg of LanthaScreen™ Amine Reactive Tb Chelate (ThermoFisher catalogue number PV3583) and incubated for 16 hours at 20° C. The material was then buffer exchanged into Phosphate Buffered Saline (being, 137 mM NaCl, 2.7 mM KCl, 10 mM Na2HPO4, 1.8 mM K2HPO4, pH 7.4) and the material quantified and the degree of Tb conjugation determined by measuring the absorption at 280 nm and 343 nm.
The integrity of the conjugated material was determined by analytical size exclusion chromatography on a S200 HR 10×300 column (GE Healthcare). Typical conjugation ratios were 4:1 Tb:IgE-Fc.
400 nmoles FcεR1α(Y131A mutant) (Cook et al., 1997) at 400 μM in 100 mM NaOAc pH 5.5 was reacted with 1 mM final concentration sodium periodate (in 100 mM NaOAc, pH 5.5) for 60 minutes at 22° C. Oxidation was quenched with the addition of 40 μL of ethanediol and incubation for 60 minutes at 22° C. The protein was buffer exchanged in to conjugation buffer (50 mM NaHCO3, 150 mM NaCl, pH 9.5) and concentrated to 750 μM.
175 nmoles of protein was added to 1 mg of Alexa Fluor™ 488 hydrazide (Invitrogen) and incubated for 16 hours at 22° C. Sodium cyanoborohydride (at 100 mM in conjugation buffer) was added to a final concentration of 1 mM and incubated for 60 minutes on ice. The protein was buffer exchanged into Phosphate Buffered Saline (being, 137 mM NaCl, 2.7 mM KCl, 10 mM Na2HPO4, 1.8 mM K2HPO4, pH 7.4) and the material quantified and the degree of Alexa Fluor™ 488 conjugation determined by measuring the absorption at 280 nm and 495 nm.
The integrity of the conjugated material was determined by analytical size exclusion chromatography on a S200 HR 10×300 column (GE Healthcare). Typical conjugation ratios were 2:1 Alexa Fluor™488: sFcεR1α
The aim was to measure binding of IgE-Tb to receptor, and the inhibition thereof by compounds, using an in vitro Fluorescence Resonance Energy Transfer (FRET) Assay.
FRET reagents used were IgE labelled with Terbium (FRET donor), and soluble IgE receptor FcεRIα with a Y131A mutation, labelled with Alexa Fluor™ 488 (FRET acceptor). Unlabelled FcεRIα was also used to generate a background control. The assay buffer consisted of 20 mM Tris pH7.2, 150 mM NaCl, and 0.002% Tween, 1% DMSO.
The assay was conducted according to the following: Each assay reaction was conducted in a volume of 25 μl in a 384-well half-volume plate. 10 point compound serial dilutions (3-fold) were generated in DMSO at a concentration of ×50 that of the final assay concentration (FAC). Compound solutions were then prepared by IgE-Tb diluting 10-fold in assay buffer. For the assay, 5 μl of diluted compound was added to 10 μl of, followed by addition of 10 μl FcεRIα-Y131A-AF488. FRET reagents FACs were 5 nM IgE-Tb, 25 nM FcεRIα-Y131A-AF488. Usually the top FAC of compound in the assay was 10 μM. The final DMSO concentration was 2%. The minimum signal (MIN) was measured by adding 5 μl unlabelled FcεRIα at 1 μM (FAC=200 nM) to the FRET reagents. The maximum FRET signal (MAX) was measured in wells containing FRET reagents but no compound.
The assay was incubated for 2 hours at room temperature, protected from light and evaporation, and with gentle agitation.
Measurement of FRET for each well was carried out by exciting at 330 nm and measuring emission at 495/520 nm using an Envision plate reader (Perkin Elmer). FRET ratio was calculated as follows: Emission at 520/Emission at 495×1000.
The FRET ratio was used for the data analysis.
Z′ was calculated as follows (σ=standard deviation and μ=mean): 1−((3×σ^MAX)+(3×σMIN))/(μMAX−μMIN)
Z′ above 0.5 was considered a good assay.
Background signal (MIN) was subtracted from all wells. Using the background subtracted values, the percent inhibition by compound in each test-well was calculated as follows: 100−Test-well FRET ratio/MAX FRET ratio×100.
Percent inhibition was plotted against compound concentration. […]

T1 sequence (P01854 104-428 isoform P01854-1 C105A/N146Q/N252Q): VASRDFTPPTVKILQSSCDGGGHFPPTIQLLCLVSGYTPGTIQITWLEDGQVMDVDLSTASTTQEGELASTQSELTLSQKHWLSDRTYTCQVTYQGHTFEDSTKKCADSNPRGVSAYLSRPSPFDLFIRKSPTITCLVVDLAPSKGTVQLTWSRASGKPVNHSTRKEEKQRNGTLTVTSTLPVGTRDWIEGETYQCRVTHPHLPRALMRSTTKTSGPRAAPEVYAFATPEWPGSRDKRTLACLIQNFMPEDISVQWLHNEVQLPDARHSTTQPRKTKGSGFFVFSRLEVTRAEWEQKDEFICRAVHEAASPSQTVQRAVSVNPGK

SMILES | IC50 [nM]
CC(C)CNS(=O)(=O)c1cc2c(c3cnc(C4CC4)cc13)CCCC2 [Example 1, 3-cyclopropyl-N-(2-methylpropyl)-7,8,9,10-tetrahydrobenzo[h]isoquinoline-5-sulfonamide] | 100 to 1000
CCNC(=O)NC1CCCc2c1cc(S(=O)(=O)NCC(C)C)c1cc(C3CC3)ncc21 (stereo not drawn) [Example 2, 1-[3-cyclopropyl-5-(2-methylpropylsulfamoyl)-7,8,9,10-tetrahydrobenzo[h]isoquinolin-7-yl]-3-ethylurea] | 50 to 100
CCNC(=O)NC1CCCc2cc(S(=O)(=O)NCC(C)C)c3cc(C4CC4)ncc3c21 (stereo not drawn) [Example 3, 1-[3-cyclopropyl-5-(2-methylpropylsulfamoyl)-7,8,9,10-tetrahydrobenzo[h]isoquinolin-10-yl]-3-ethylurea] | 100 to 1000
CC(C)CNS(=O)(=O)c1cc2c(c3cnc(C4CC4)cc13)CCCC2NS(C)(=O)=O (stereo not drawn) [Example 4, 3-cyclopropyl-7-(methanesulfonamido)-N-(2-methylpropyl)-7,8,9,10-tetrahydrobenzo[h]isoquinoline-5-sulfonamide] | 100 to 1000
CC(C)CNS(=O)(=O)c1cc2c(c3cnc(C4CC4)cc13)C(NS(C)(=O)=O)CCC2 (stereo not drawn) [Example 5, 3-cyclopropyl-10-(methanesulfonamido)-N-(2-methylpropyl)-7,8,9,10-tetrahydrobenzol[h]isoquinoline-5-sulfonamide] | 1000 to 5000
Cn1nnc(-c2ccc(NC3CCCc4c3cc(S(=O)(=O)NCC(C)(C)F)c3cc(C5CC5)ncc43)cn2)n1 (stereo not drawn) [Example 6] | 10 to 50
Cc1cc(Nc2nncn2C2CCCc3c2cc(S(=O)(=O)NCC(C)(C)F)c2cc(C4CC4)ncc32)n(C)n1 (stereo not drawn) [Example 7, 3-cyclopropyl-7-[3-[(2,5-dimethylpyrazol-3-yl)amino]-1,2,4-triazol-4-yl]-N-(2-fluoro-2-methylpropyl)-7,8,9,10-tetrahydrobenzo[h]isoquinoline-5-sulfonamide] | 100 to 1000
Cn1nnc(-c2ccc(NC3CCCc4cc(S(=O)(=O)NCC(C)(C)F)c5cc(C6CC6)ncc5c43)cn2)n1 (stereo not drawn) [Example 8, 3-cyclopropyl-N-(2-fluoro-2-methylpropyl)-10-[[6-(2-methyltetrazol-5-yl)pyridin-3-yl]amino]-7,8,9,10-tetrahydrobenzo[h]isoquinoline-5-sulfonamide] | 100 to 1000
CCOC(=O)c1ncn(C2CCCc3c2cc(S(=O)(=O)NCC(C)(C)F)c2cc(C4CC4)ncc32)c1N (stereo not drawn) [Example 9, ethyl 5-amino-1-[3-cyclopropyl-5-[(2-fluoro-2-methylpropyl)sulfamoyl]-7,8,9,10-tetrahydrobenzo[h]isoquinolin-7-yl]imidazole-4-carboxylate] | 100 to 1000
Cc1noc(-c2cncc(NC3CCCc4c3cc(S(=O)(=O)NCC(C)(C)F)c3cc(C5CC5)ncc43)c2)n1 (stereo not drawn) [Example 10, 3-cyclopropyl-N-(2-fluoro-2-methylpropyl)-7-[[5-(3-methyl-1,2,4-oxadiazol-5-yl)pyridin-3-yl]amino]-7,8,9,10-tetrahydrobenzo[h]isoquinoline-5-sulfonamide] | 50 to 100
Cc1cc(NC(=O)NC2CCCc3c2cc(S(=O)(=O)NCC(C)(C)F)c2cc(C4CC4)ncc32)n(C)n1 (stereo not drawn) [Example 11, 1-[3-cyclopropyl-5-[(2-fluoro-2-methylpropyl)sulfamoyl]-7,8,9,10-tetrahydrobenzo[h]isoquinolin-7-yl]-3-(2,5-dimethylpyrazol-3-yl) urea] | 100 to 1000
CCOC(=O)c1cn(C2CCCc3c2cc(S(=O)(=O)NCC(C)(C)F)c2cc(C4CC4)ncc32)cn1 (stereo not drawn) [Example 12, ethyl 1-[3-cyclopropyl-5[(2-fluoro-2-methylpropyl)sulfamoyl]-7,8,9,10-tetrahydrobenzo[h]isoquinolin-7-yl]imidazole-4-carboxylate] | 100 to 1000
